By MIC is commonly meant the least concentration at which growth counts as inhibited.

Read-outs that look alike come from different tables or passages of the source.

Data set [1] concerns Pseudomonas aeruginosa ATCC 27853. The experiment in a line: CO-ADD bacterial broth microdilution MIC assay. It is filed as cell-based. To be noted: CAMHB, 37 °C, 18 h, ≥ 80% inhibition; for MIC: Pseudomonas aeruginosa, ATCC27853, read-out: MIC Pa (Pseudomonas aeruginosa ATCC 27853). Here is the method:
(§1) CO-ADD High Throughput Screening
(§2) Bacterial broth microdilution minimum inhibitory concentration (MIC) assay Bacterial strains were cultured in Cation-adjusted Mueller Hinton broth (CAMHB; Bacto Laboratories 212322) at 37 °C overnight. A sample of each culture was then diluted 40-fold in fresh CAMHB and incubated at 37 °C for 1.5-3 h. The resultant mid-log phase cultures were diluted with CAMHB (CFU/mL measured by OD600), then added to each well of the compound-containing plates (384-well non-binding surface (NBS) plates; Corning CLS3640), giving a cell density of 5 × 10^5 CFU/mL and a total volume of 50 µL. Plates were covered and incubated at 37 °C for 18 h without shaking. Inhibition of bacterial growth was determined measuring absorbance at 600 nm (OD600), using media only as negative control and bacteria without inhibitors as positive control. MIC values were determined as the lowest concentration at which the growth was inhibited at ≥ 80%. Colistin sulfate (Sigma C4461) and vancomycin HCl (Sigma 861987) were used as positive inhibitor controls on each plate for Gram-negative and Gram-positive bacteria, respectively.
(§3) Figure S1. 1H NMR (400 MHz) of [Co(ATS)(DMAP)2]NO3 (3) in DMSO-d6.
(§4) (1 picture or pasted object on this page, not shown here)
(In general: Dilution methods test growth across graded concentrations, often in twofold steps.)

For data set [2], the system named is Staphylococcus aureus ATCC 43300 (MRSA). The experiment in a line: CO-ADD bacterial broth microdilution MIC assay. To be noted: for MIC: Staphylococcus aureus, read-out: MIC Sa (Staphylococcus aureus ATCC 43300, MRSA). The data set is classed as cell-based. As for the experimental part: as §1, §2, §3, §4
Another data set has as its system C. tropicalis ATCC 750. In words: Antifungal MIC assay (broth microdilution in YNB). It is filed as cell-based, Candida tropicalis. The text has this:
(§5) Yeast strains: Candida albicans (ATCC 90028, NCCLS 11), Cryptococcus neoformans (ATCC 208821, H99 type strain), Candida tropicalis (ATCC 750, type strain), Candida glabrata (ATCC 90030, NCCLS 84) and Cryptococcus deuterogattii (ATCC 32609, type strain) were obtained from the American Type Culture Collection (ATCC). Cryptococcus deuterogattii (CBS 7750), Candida auris (CBS 10913) and Candida auris (CBS 12373) were obtained from the CBS‐KNAW culture collection. The strains were maintained on glycerol/YPD (yeast extract‐peptone dextrose) broth (20:80 v/v) at −80 °C.
(§6) Antifungal minimum inhibitory concentration (MIC) assay: The cobalt complexes and antifungal control compounds were serially diluted in 50 μL of Yeast Nitrogen Broth (YNB; BD, Cat No. 233520 supplemented with 2 % glucose and 10 mM ammonium sulfate) two‐fold across the wells of non‐binding surface (NBS) 96‐well plates (Corning; Cat. No. 3641). Plates were set up in quadruplicate for each strain tested, and two biological replicates were conducted on separate assay days.
(§7) Yeast strains were cultured from glycerol onto YPD (Becton Dickinson 242720) agar at 30 °C for 72 h. For each strain, a minimum of five single colonies were taken from the agar plate and dissolved in sterile water and adjusted to form a yeast suspension of 1×10^6 to 5×10^6 CFU mL^−1 (as determined by OD530). The suspension was subsequently diluted into YNB media, and added to each well of the compound containing plates, giving a final cell density of 2.5×10^3 CFU mL^−1 and a total volume of 100 μL. Plates were covered and incubated at 35 °C for 36 h without shaking.
(§8) Growth inhibition of all strains was determined visually where the MIC was recorded as the lowest compound concentration with no visible growth. Fluconazole (Sigma F8929), ketoconazole (Sigma K1003) and micafungin (Sigma SML2288) were used as internal positive inhibitor controls for every strain tested.

The subject of a further data set is C. glabrata ATCC 90030. In words: Antifungal MIC assay (broth microdilution in YNB). The data set is classed as cell-based, Candida glabrata.
Source text: as §5, §6, §7, §8

Data set [3] deals with C. neoformans ATCC 208821. The experiment in a line: Antifungal MIC assay (broth microdilution in YNB). It is filed as cell-based, Cryptococcus neoformans.
Source text: as §5, §6, §7, §8

The next data set has as its system C. auris CBS 10913. In words: Antifungal MIC assay (broth microdilution in YNB). It is filed as cell-based, Candida auris. Particulars: for MIC: Candidozyma auris, CBS10913.
Source text: as §5, §6, §7, §8

For a further data set, the system named is C. auris CBS 12373. In words: Antifungal MIC assay (broth microdilution in YNB). It is filed as cell-based, Candida auris.
Source text: as §5, §6, §7, §8

In another data set the test system is C. albicans ATCC 90028. In words: Antifungal MIC assay (broth microdilution in YNB). The data set is classed as cell-based, Candida albicans.
Source text: as §5, §6, §7, §8

Data set [4] relates to Klebsiella pneumoniae ATCC 700603 (K6; ESBL SHV-18). It is filed as cell-based. Particulars: 18 h. As for the experimental part: as §1, §2, §3, §4
The next data set concerns human red blood cells. In words: Haemolysis assay. It is filed as cell-based. Particulars: 1 h at 37 °C. Here is the method:
Haemolysis assay: Human whole blood (Australian Red Cross Blood Service) was washed three times with three volumes of 0.9 % NaCl and resuspended in a concentration of 0.5×10^8 cells mL^−1, determined by manual cell count in a Neubauer haemocytometer. Washed cells were added to compound containing plates (384‐well round bottom polypropylene plates, Corning 3657) for a final volume of 50 μL, shaken for 10 min and incubated for 1 h at 37 °C, without shaking. After incubation, the plates were centrifuged at 1000 g for 10 min to pellet cells and debris, 25 μL of the supernatant was then transferred to reading plates (384‐well flat bottom polystyrene plates, Corning CLS3680), with haemolysis determined by measuring the supernatant absorbance at […] (OD405), using cells without inhibitors as negative control and cells with 1 % Triton X‐100 (Sigma T8787) as positive control. HC10 and HC50 (concentration at which 10 and 50 % haemolysis is induced, respectively) were calculated by curve fitting the inhibition values vs. log(concentration) of four replicates using a sigmoidal dose–response function with variable fitting values for top, bottom and slope using Prism 8. Melittin (Sigma M2272) was used as positive haemolytic control on each plate. Human ethics approval from the University of Queensland Institutional Human Research Ethics Committee was obtained for use of human blood for haemolysis studies (approval number 201400003).

Setting [5] is: CAMHB, 37 °C, 18 h, ≥ 80% inhibition.
Setting [6] is: Candida tropicalis, ATCC750, Table S1, read-out: MIC Candida tropicalis ATCC 750.
[7] abbreviates: Candida tropicalis, ATCC750, range of MICs, n=8, 35 °C, 36 h, visual, read-out: MIC C. tropicalis ATCC 750.
Where [8] appears, read: Nakaseomyces glabratus, ATCC90030, Table S1, read-out: MIC Candida glabrata ATCC 90030.
Setting [9] is: Nakaseomyces glabratus, ATCC90030, range of MICs, n=8, 35 °C, 36 h, visual, read-out: MIC C. glabrata ATCC 90030.
[10] abbreviates: Cryptococcus neoformans, ATCC208821, Table S1, read-out: MIC Cryptococcus neoformans ATCC 208821.
Where [11] appears, read: Cryptococcus neoformans, ATCC208821, range of MICs, n=8, 35 °C, 36 h, visual, read-out: MIC C. neoformans ATCC 208821.
The mark [12] stands for this setting: Table S1, read-out: MIC Candida auris CBS 10913.
Setting [13] is: range of MICs, n=8, 35 °C, 36 h, visual, read-out: MIC C. auris CBS 10913.
Where [14] appears, read: Candidozyma auris, CBS12373, Table S1, read-out: MIC Candida auris CBS 12373.
Where [15] appears, read: Candidozyma auris, CBS12373, range of MICs, n=8, 35 °C, 36 h, visual, read-out: MIC C. auris CBS 12373.
[16] abbreviates: Candida albicans, ATCC90028, Table S1, read-out: MIC Candida albicans ATCC 90028.
The mark [17] stands for this setting: Candida albicans, ATCC90028, range of MICs, n=8, 35 °C, 36 h, visual, read-out: MIC C. albicans ATCC 90028.

Consider `CC(/C=C(\O)C(F)(F)F)=N\CC/N=C(C)/C=C(\O)C(F)(F)F` [Compound L2], for which the MIC was > 32 mg/L in data set [1]; > 32 mg/L in [2] (setting [5]); > 33.2 mg/L in the data set on C. tropicalis ATCC 750 (setting [6]); > 100 µM in the data set on C. tropicalis ATCC 750 (setting [7]); > 33.2 mg/L in the data set on C. glabrata ATCC 90030 (setting [8]); > 100 µM in the data set with C. glabrata ATCC 90030 (setting [9]). For the same compound, the MIC in [3] (setting [10]) was > 33.2 mg/L; in data set [3] (setting [11]) it was > 100 µM; in the data set with C. auris CBS 10913 (setting [12]), > 33.2 mg/L; with C. auris CBS 10913 (setting [13]), > 100 µM; in the data set with C. auris CBS 12373 (setting [14]) it was > 33.2 mg/L; with C. auris CBS 12373 (setting [15]) it was > 100 µM. In addition, the MIC in the data set on C. albicans ATCC 90028 (setting [16]) was > 33.2 mg/L; in the data set on C. albicans ATCC 90028 (setting [17]), > 100 µM. Further, the “MIC Kp (Klebsiella pneumoniae ATCC 700603)” value (from here on “MIC Kp”) in [4] is > 32 mg/L. In the data set on human red blood cells, the “Haem HC10 (concentration at which 10 % haemolysis is reached)” value was >100 µM.

Consider `Oc1c(F)cccc1/C=N/CC/N=C/c1cccc(F)c1O` [Compound L3], for which the MIC is > 32 mg/L in data set [1]; > 32 mg/L in data set [2] (setting [5]); > 30.4 mg/L with C. tropicalis ATCC 750 (setting [6]); > 100 µM in the data set with C. tropicalis ATCC 750 (setting [7]); > 30.4 mg/L with C. glabrata ATCC 90030 (setting [8]); > 100 µM in the data set on C. glabrata ATCC 90030 (setting [9]). The MIC in data set [3] (setting [10]) is > 30.4 mg/L; in data set [3] (setting [11]), 100 µM; with C. auris CBS 10913 (setting [12]), > 30.4 mg/L; in the data set on C. auris CBS 10913 (setting [13]), > 100 µM; in the data set with C. auris CBS 12373 (setting [14]), > 30.4 mg/L; in the data set with C. auris CBS 12373 (setting [15]), 100 µM. Further, the MIC in the data set on C. albicans ATCC 90028 (setting [16]) was > 30.4 mg/L; in the data set on C. albicans ATCC 90028 (setting [17]), > 100 µM. Also, the “MIC Kp” value in data set [4] was > 32 mg/L. Further, in the data set on human red blood cells, the “Haem HC10 (concentration at which 10 % haemolysis is reached)” value is >100 µM.

For “[Co(3F‐salophen)(3F‐BnNH2)2]NO3 [Compound 6]”, the “MIC Pa (Pseudomonas aeruginosa ATCC 27853)” value in data set [1] was > 32 mg/L. For the same compound, the “MIC Sa (Staphylococcus aureus ATCC 43300, MRSA)” value in data set [2] (setting [5]) amounted to 8 mg/L. Moreover, the “MIC methicillin‐resistant S. aureus (MRSA)” value in data set [2] (value in μM given in brackets in the text) amounted to 11.5 µM. Moreover, the “MIC Candida tropicalis ATCC 750” value against C. tropicalis ATCC 750 (Table S1) is > 69.4 mg/L. For the same compound, the MIC in the data set with C. tropicalis ATCC 750 (range of MICs, n=8, 35 °C, 36 h, visual, read-out: MIC C. tropicalis ATCC 750) is recorded as >100 µM; in the data set on C. glabrata ATCC 90030 (range of MICs, n=8, 35 °C, 36 h, visual, read-out: MIC C. glabrata ATCC 90030) it was >100 µM; in [3] (range of MICs, n=8, 35 °C, 36 h, visual, read-out: MIC C. neoformans ATCC 208821) it was 100 µM; in the data set on C. auris CBS 12373 (range of MICs, n=8, 35 °C, 36 h, visual, read-out: MIC C. auris CBS 12373), 25 µM; in the data set on C. albicans ATCC 90028 (range of MICs, n=8, 35 °C, 36 h, visual, read-out: MIC C. albicans ATCC 90028), 100 µM. Besides, the “MIC Candida glabrata ATCC 90030” value with C. glabrata ATCC 90030 (Table S1) is > 69.4 mg/L. Also, the “MIC Cryptococcus neoformans ATCC 208821” value in data set [3] (Table S1) was 69.4 mg/L. For the same compound, the “MIC Candida auris CBS 10913” value with C. auris CBS 10913 (Table S1) lay in the range of 0.03 to 0.54 mg/L. The “MIC C. auris CBS 10913, lowest value ('as low as')” value in the data set on C. auris CBS 10913 (lower end of MIC range) is 0.098 µM. The “MIC Candida auris CBS 12373” value against C. auris CBS 12373 (Table S1) is 17.3 mg/L. Moreover, in the data set on C. albicans ATCC 90028 (Table S1), the “MIC Candida albicans ATCC 90028” value worked out at 69.4 mg/L. Further, the “MIC Kp” value in data set [4] is > 32 mg/L. In the data set with human red blood cells, the “Haem HC10 (concentration at which 10 % haemolysis is reached)” value was >100 µM.

(Values after publication PMC7855930, “Nontoxic Cobalt(III) Schiff Base Complexes with Broad‐Spectrum Antifungal Activity” (Chemistry (Weinheim an Der Bergstrasse, Germany), 2020).)
